One data set deals with glutathione. Kind of data set: Glutathione levels in plasma, cortex and midbrain of Parkinson's model mice, by glutathione assay. Type of data set: in vivo, mouse. Conditions: compared with knockout mice. Here is the method: Matched cohorts of SNCA transgenic mouse model of PD were used to measure the therapeutic efficacy of ErgoD2™ to control movement disorder, improve grip strength, and lower alpha-synuclein in the cortex and/or midbrain of the PD animals. Additionally, alpha-synuclein was measured in the plasma, and glutathione was measured in the plasma, cortex and midbrain. IL-6 measurements and an immunohistochemistry study will also be performed on intestinal tissues to see if there are pathologic variances in intestinal function between cohorts, which could be associated with disease onset and progression.
Concentrations of glutathione present in midbrain homogenates (nM), as measured by glutathione assay.
Concentrations of glutathione present in cortex homogenates (nM), as measured by glutathione assay. Error bars represent±standard error. Glutathione is a major protective antioxidant in animal cells. It is present most abundantly in its reduced form (GSH) in healthy cells. The levels of GSH and glutathione disulfide (GSSG), the oxidized form, are used as indicators of oxidative stress and overall cell health. One of the well-established markers of PD is a decrease in glutathione levels in the substantia nigra (SN). This decrease is specific to the SN and is not observed in other sections of the PD brain.

A further data set relates to insulin resistance. The note with it: cited from earlier work.
For data set [1] the following is noted: humans, after mushroom consumption (0 g, 8 g, 16 g doses); cited from earlier work.

Take `CC(=O)N[C@@H](CS)C(=O)O` [NAC, n-acetyl cysteine]: in the data set on glutathione, the “cortex glutathione concentration, treated transgenic versus knockout mice” value is recorded as “no significant differences”.
Regarding vitamin D, the “improvement of insulin resistance” value in the data set with insulin resistance (bringing 25(OH)D levels above 80 nmol/L) is 12%. Also, in the data set with insulin resistance (increasing vitamin D levels from 25 to 75 nmol/L), the “improvement in insulin sensitivity” value is listed as 60%.
On to `C[N+](C)(C)[C@@H](Cc1c[nH]c(=S)[nH]1)C(=O)[O-]` [L-Ergothioneine], for which the “time of peak of ET in red blood cells (RBC)” value in data set [1] is 2 h.
